Test results: ChEMBL document CHEMBL1201862, “PubChem BioAssay data set” (2004)
Activity calls are given as the source filed them.

Columns and labels:
NIH3T3 = assay: cytotoxicity in NIH-3T3 fibroblasts, dose response, cytotoxicity control for antifungal drug resistance project, cell-based, Alamar Blue, fluconazole, dry powder (AID 488809); format: functional; conditions: Mus musculus
Candida albicans [1] = assay: growth inhibition of resistant C. albicans, dose response, CaCi-8, fluconazole, Alamar Blue, dry powder (AID 488807); format: functional, organism-based
Candida albicans [2] = assay: single-agent growth inhibition of C. albicans, dose response, counter-screen for antifungal drug resistance project, C. albicans CaCi-2, dry powder (AID 488802); format: functional, organism-based
Cytochrome P450 2C9 = Cytochrome P450 2C9 (Homo sapiens, UniProt P11712)
[3] = target: Cyclin-dependent kinase 8 (Homo sapiens, UniProt P49336); assay: Navigating the Kinome. Panel member name: CDK8; format: functional
[4] = target: Cyclin-dependent kinase 9 (Homo sapiens, UniProt P50750); format: functional;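 note: value from the CDK9 entry of a kinome-spanning kinase panel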
[5] = target: T1, Sentrin-specific protease 6 (Homo sapiens, UniProt Q9GZR1); assay: SAR Analysis of small molecule inhibitors of Sentrin-specific protease 6 (SENP6) using a Luminescent assay. [Related pubchem assays (depositor defined):AID2582, AID2599]; format: functional
T1 sequence (Q9GZR1 whole entry): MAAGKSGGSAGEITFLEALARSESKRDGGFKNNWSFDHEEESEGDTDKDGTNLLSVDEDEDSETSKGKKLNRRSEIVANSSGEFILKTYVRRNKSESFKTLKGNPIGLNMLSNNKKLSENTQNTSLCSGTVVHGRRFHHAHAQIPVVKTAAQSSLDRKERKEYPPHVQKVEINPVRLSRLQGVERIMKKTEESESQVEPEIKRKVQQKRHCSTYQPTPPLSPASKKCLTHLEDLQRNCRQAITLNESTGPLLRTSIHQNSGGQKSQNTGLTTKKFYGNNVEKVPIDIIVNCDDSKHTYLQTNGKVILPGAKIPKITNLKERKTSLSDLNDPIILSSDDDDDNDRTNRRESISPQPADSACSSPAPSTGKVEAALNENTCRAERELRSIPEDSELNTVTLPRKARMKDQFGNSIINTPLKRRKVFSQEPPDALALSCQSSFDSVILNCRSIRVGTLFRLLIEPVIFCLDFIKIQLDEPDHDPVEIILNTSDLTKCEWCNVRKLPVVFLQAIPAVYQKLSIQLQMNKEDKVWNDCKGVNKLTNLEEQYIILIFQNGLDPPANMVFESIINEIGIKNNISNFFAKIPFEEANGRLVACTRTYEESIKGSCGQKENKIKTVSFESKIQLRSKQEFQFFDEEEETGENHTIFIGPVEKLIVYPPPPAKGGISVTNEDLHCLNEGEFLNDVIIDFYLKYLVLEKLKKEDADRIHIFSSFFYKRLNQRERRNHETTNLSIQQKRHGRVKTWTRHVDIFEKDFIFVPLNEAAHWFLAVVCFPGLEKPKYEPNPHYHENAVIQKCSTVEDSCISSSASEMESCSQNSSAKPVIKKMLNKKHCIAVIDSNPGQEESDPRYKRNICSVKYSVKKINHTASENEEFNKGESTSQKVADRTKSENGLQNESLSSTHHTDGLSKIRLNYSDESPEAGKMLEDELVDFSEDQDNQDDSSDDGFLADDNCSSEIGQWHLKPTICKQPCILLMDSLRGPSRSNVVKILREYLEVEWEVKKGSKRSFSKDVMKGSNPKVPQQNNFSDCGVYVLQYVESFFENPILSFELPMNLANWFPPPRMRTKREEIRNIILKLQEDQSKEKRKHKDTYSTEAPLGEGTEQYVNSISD

Caspase-3 [6] = target: T2, Caspase-3 (Homo sapiens, UniProt P42574); assay: SAR Analysis of small molecule inhibitors of Sentrin-specific proteases (SENPs) using a Caspase-3 Selectivity assay. [Related pubchem assays (depositor defined):AID2540, AID2599, AID434973, AID489001]; format: functional
T2 sequence (P42574 whole entry): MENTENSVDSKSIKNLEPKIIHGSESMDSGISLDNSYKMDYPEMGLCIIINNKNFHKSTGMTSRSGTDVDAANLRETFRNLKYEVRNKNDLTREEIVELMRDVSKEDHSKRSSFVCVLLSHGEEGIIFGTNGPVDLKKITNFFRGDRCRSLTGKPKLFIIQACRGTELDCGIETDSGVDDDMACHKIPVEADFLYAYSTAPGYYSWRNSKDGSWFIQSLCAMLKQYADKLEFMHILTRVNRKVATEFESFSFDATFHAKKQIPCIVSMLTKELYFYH

[7] = target: T3, Sentrin-specific protease 7 (Homo sapiens, UniProt Q9BQF6); assay: SENP7 protease inhibitors, SAR follow-up, biochemical, luminescence (AID 504497); format: functional
T3 sequence (Q9BQF6 whole entry): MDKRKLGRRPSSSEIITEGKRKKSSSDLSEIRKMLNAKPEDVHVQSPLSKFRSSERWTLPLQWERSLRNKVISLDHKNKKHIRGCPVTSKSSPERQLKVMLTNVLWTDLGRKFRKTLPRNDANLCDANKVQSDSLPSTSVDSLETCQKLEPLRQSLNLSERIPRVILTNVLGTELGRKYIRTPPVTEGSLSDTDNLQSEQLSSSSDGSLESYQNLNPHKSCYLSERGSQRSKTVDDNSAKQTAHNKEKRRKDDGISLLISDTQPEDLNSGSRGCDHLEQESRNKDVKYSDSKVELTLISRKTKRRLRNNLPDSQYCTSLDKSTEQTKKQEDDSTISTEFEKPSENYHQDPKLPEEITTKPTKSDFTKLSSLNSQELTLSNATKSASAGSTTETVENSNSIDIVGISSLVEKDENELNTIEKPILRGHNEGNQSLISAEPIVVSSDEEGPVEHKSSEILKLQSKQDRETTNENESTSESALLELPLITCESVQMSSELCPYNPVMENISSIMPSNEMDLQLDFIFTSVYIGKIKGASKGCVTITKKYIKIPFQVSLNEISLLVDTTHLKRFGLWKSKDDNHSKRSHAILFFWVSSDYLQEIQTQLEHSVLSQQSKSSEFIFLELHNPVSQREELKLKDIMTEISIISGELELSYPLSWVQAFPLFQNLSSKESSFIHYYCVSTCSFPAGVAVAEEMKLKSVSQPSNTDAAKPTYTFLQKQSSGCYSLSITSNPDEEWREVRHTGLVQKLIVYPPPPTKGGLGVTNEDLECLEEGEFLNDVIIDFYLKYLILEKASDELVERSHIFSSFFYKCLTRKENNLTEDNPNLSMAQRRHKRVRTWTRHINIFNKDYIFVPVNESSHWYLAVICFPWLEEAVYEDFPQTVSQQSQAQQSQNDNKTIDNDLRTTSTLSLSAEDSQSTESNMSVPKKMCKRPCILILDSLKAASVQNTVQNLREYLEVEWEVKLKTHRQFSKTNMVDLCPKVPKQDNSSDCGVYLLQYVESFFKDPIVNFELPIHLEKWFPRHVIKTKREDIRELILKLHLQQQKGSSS

[8] = target: T4, Sentrin-specific protease 8 (Homo sapiens, UniProt Q96LD8); assay: SENP8 protease inhibitors, SAR follow-up, biochemical, luminescence (AID 504501); format: functional
T4 sequence (Q96LD8 whole entry): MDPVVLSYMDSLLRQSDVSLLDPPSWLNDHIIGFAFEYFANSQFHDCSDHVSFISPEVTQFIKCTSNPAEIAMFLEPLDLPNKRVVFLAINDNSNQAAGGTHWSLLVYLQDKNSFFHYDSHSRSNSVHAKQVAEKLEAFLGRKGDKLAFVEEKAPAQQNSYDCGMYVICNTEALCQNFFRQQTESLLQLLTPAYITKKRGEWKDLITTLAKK

Caspase-3 [9] = target: T2, Caspase-3; assay: caspase-3 inhibitors as off-family protease, SAR follow-up, selectivity assay for SENP protease inhibitor project, biochemical, luminescence, set 2 (AID 588599); format: functional
[10] = target: T4, Sentrin-specific protease 8; assay: SENP8 protease inhibitors, SAR follow-up, biochemical, luminescence, set 2 (AID 588601); format: functional
[11] = target: T3, Sentrin-specific protease 7; assay: SENP7 protease inhibitors, SAR follow-up, biochemical, luminescence, set 2 (AID 588600); format: functional
[12] = target: T1, Sentrin-specific protease 6; assay: SENP6 protease inhibitors, SAR follow-up, biochemical, luminescence, set 2 (AID 588598); format: functional
[13] = target: T5, Orexin/Hypocretin receptor type 1 (Homo sapiens, UniProt O43613); assay: Homogeneous Time Resolved Fluorescence (HTRF)-based cell-based high throughput dose response assay for antagonists of the orexin 1 receptor (OX1R; HCRTR1). [Related pubchem assays (depositor defined):AID434989, AID435008, AID463079, AID485270, AID492963, AID492964, AID492965, AID493232, AID504717, AID504718]; format: functional
[14] = HEp-2 cell cytotoxicity, dose response, cytotoxicity control for RSV inhibitor project, HTS (AID 2410); format: functional; conditions: human respiratory syncytial virus
[15] = target: T5, Orexin/Hypocretin receptor type 1; assay: Fluorescence-based cell-based high throughput dose response assay for antagonists of the orexin 1 receptor (OX1R; HCRTR1). [Related pubchem assays (depositor defined):AID434989, AID435008, AID463079, AID485270, AID492963, AID492964, AID492965, AID493232, AID504717, AID504718]; format: functional
H9c2 = assay: cells; format: functional, cell-based; conditions: Rattus norvegicus, H9c2, Myocardium;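 note: confirmatory concentration-response retest of ultra-high-throughput screening hits for modulation of myocardial damage; cell death induced by hydrogen peroxide oxidative stress; compound pretreatment for 60 min then peroxide exposure for 2 h; potency is for protecting the cells against peroxide damage rather than for killing them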
Orexin receptor type 2 [16] = target: T6, Orexin receptor type 2 (Homo sapiens, UniProt O43614); assay: Counterscreen assay for antagonists of the orexin 1 receptor (OX1R; HCRTR1): Homogeneous Time Resolved Fluorescence (HTRF)-based cell-based dose response assay for antagonists of the orexin 2 receptor (OX2R; HCRTR2), run by assay provider.; format: functional
CHO-K1 = assay: Counterscreen for antagonists of the orexin 1 receptor (OX1R; HCRTR1): Homogeneous time resolved fluorescence (HTRF)-based cell-based dose response assay to identify antagonists of the parental CHO-K1 cell line. [Related pubchem assays (depositor defined):AID434989, AID435008, AID463079, AID485270, AID492963, AID492964, AID492965, AID493232, AID504699, AID504701]; format: functional; conditions: Cricetulus griseus;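 note: potency for inhibition of ATP-stimulated IP1 production as antagonists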
Orexin receptor type 2 [17] = target: T6, Orexin receptor type 2; assay: Counterscreen assay for antagonists of the orexin 1 receptor (OX1R; HCRTR1): Fluorescence-based cell-based dose response assay for antagonists of the orexin 2 receptor (OX2R; HCRTR2), run by assay provider.; format: functional
[18] = Counterscreen for antagonists of the orexin 1 receptor (OX1R; HCRTR1): Fluorescence-based cell-based high throughput dose response assay to identify antagonists of the parental CHO cell line. [Related pubchem assays (depositor defined):AID434989, AID435008, AID463079, AID485270, AID492963, AID492964, AID492965, AID493232, AID504699, AID504701]; format: functional
[19] = Vero cell cytotoxicity, dose response, cytotoxicity control for M. tuberculosis growth inhibitor project, Vero cells, purified and synthesized compounds, set 5 (AID 504909); format: functional; conditions: Mycobacterium tuberculosis
[20] = THP-1 cell cytotoxicity, cytotoxicity control, set 4 (AID 504911); format: functional; conditions: Mycobacterium tuberculosis
[21] = THP-1 cell cytotoxicity, dose response, cytotoxicity control, set 3 (AID 504852); format: functional; conditions: Mycobacterium tuberculosis
[22] = A Cell Based Secondary Assay to Explore Cytotoxicity in THP-1 Cells of Compounds that Modulate Mycobacterium tuberculosis in Media Containing Glycerol versus Media without Glycerol (2).; format: functional
[23] = Vero cell cytotoxicity, dose response, cytotoxicity control for M. tuberculosis growth inhibitor project, Vero cells, purified and synthesized compounds, set 4 (AID 504854); format: functional; conditions: Mycobacterium tuberculosis
[24] = Vero cell cytotoxicity, cytotoxicity control for M. tuberculosis inhibitor project, purified and synthesized samples, set 3 (AID 504684); format: functional
[25] = target: Glycogen synthase kinase-3 beta (Homo sapiens, UniProt P49841); assay: Inhibition of Human GSK-3 beta Activity Measured in Biochemical System Using Microfluidics - 2063-05_Inhibitor_Dose_DryPowder_Activity_Set2. [Related pubchem assays (depositor defined):AID2709]
[26] = target: Cyclin-dependent kinase 5/CDK5 activator 1 (Homo sapiens, UniProt Q00535); assay: CDK5-p25 kinase inhibitors, specificity check, dose response, selectivity assay for GSK-3 alpha inhibitor project, biochemical, microfluidic mobility shift, dry powder (AID 588430)
[27] = target: Glycogen synthase kinase-3 alpha (Homo sapiens, UniProt P49840); assay: Inhibition of Human GSK-3 alpha Activity Measured in Biochemical System Using Microfluidics - 2063-06_Inhibitor_Dose_DryPowder_Activity_Set2. [Related pubchem assays (depositor defined):AID2709]
Glycogen synthase kinase-3 alpha, sequence (P49840 whole entry): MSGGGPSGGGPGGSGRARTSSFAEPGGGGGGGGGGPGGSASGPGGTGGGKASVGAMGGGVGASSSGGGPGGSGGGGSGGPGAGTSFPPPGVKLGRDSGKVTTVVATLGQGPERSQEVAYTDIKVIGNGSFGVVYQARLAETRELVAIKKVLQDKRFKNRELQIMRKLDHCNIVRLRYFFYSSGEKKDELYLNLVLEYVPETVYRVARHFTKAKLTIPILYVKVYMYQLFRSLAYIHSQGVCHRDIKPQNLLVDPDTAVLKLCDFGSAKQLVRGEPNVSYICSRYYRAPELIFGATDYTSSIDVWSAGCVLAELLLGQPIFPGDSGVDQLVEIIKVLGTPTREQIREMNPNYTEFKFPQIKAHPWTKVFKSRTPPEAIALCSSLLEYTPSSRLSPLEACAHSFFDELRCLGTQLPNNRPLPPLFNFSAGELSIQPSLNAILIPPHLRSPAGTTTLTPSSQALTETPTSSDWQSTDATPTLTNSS

T6 sequence (O43614 whole entry): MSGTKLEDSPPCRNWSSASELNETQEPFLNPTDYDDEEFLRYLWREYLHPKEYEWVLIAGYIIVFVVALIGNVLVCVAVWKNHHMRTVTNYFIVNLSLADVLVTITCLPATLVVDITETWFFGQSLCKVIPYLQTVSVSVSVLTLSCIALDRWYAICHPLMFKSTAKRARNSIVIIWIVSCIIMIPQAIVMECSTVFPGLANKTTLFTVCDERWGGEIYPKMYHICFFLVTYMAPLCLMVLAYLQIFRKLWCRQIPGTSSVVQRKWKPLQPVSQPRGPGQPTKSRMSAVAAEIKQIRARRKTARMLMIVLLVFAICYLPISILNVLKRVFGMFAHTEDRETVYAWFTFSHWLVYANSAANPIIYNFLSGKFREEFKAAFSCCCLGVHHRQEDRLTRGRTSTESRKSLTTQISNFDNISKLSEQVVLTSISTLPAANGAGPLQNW
T5 sequence (O43613 whole entry): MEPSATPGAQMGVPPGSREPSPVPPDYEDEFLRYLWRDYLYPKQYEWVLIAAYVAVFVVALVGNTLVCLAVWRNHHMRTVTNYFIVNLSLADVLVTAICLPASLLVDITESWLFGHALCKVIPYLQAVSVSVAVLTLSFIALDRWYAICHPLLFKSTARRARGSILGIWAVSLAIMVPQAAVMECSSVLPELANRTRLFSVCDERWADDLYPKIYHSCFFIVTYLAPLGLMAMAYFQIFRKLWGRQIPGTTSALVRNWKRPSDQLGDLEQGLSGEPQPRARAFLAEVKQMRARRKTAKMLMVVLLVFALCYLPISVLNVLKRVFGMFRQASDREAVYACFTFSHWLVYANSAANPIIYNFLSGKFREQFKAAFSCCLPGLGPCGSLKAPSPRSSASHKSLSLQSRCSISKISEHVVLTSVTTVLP
Glycogen synthase kinase-3 beta, sequence (P49841 whole entry): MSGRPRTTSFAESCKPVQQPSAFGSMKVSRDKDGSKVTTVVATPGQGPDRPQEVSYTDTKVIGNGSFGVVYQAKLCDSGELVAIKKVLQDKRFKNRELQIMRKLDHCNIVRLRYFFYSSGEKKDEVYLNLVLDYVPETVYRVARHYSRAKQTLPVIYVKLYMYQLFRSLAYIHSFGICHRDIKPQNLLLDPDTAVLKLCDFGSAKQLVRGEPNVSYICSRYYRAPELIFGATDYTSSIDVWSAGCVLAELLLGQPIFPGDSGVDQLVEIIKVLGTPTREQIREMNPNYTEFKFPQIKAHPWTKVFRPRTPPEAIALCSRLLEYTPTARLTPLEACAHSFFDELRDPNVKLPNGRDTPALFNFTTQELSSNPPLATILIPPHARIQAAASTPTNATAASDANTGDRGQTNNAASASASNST
Cytochrome P450 2C9, sequence (P11712 whole entry): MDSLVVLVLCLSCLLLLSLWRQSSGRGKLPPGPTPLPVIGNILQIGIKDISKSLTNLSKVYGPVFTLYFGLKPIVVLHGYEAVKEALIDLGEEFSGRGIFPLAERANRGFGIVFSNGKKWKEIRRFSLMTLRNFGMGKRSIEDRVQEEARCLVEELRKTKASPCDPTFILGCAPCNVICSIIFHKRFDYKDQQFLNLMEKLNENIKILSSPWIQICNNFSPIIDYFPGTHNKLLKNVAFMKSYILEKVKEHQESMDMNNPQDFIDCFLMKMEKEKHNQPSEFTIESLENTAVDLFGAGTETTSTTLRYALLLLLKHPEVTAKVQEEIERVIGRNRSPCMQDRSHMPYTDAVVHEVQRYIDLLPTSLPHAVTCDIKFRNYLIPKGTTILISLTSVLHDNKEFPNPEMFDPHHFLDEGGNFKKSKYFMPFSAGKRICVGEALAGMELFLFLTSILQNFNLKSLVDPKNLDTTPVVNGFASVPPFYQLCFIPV
Cyclin-dependent kinase 9, sequence (P50750 whole entry): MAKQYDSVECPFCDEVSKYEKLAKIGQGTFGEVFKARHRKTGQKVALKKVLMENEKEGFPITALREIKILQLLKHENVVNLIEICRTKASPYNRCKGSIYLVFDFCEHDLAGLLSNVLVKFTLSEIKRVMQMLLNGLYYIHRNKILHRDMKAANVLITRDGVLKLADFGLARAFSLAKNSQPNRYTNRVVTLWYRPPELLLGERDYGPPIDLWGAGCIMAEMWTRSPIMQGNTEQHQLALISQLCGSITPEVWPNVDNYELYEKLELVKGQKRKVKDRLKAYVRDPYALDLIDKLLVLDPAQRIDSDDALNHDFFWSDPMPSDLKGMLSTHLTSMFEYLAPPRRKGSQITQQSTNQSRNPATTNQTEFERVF
Cyclin-dependent kinase 5/CDK5 activator 1, sequence (Q00535 whole entry): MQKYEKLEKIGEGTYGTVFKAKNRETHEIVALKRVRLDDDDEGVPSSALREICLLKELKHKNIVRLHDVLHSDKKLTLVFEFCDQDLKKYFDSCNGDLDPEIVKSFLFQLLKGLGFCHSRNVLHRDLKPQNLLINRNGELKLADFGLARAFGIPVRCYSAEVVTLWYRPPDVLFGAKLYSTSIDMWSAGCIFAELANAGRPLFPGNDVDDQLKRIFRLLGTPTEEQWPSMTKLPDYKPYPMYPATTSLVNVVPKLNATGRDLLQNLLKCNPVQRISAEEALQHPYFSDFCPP
Cyclin-dependent kinase 5/CDK5 activator 1, sequence (Q15078 whole entry, further chain): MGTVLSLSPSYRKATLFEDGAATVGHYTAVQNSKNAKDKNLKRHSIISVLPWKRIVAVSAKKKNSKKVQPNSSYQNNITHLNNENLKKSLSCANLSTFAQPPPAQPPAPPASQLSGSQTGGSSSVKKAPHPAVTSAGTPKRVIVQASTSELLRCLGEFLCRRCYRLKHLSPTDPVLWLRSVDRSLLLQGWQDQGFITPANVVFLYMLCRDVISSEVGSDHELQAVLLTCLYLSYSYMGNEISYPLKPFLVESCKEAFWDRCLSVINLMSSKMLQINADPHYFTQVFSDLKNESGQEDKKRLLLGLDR
Cyclin-dependent kinase 8, sequence (P49336 whole entry): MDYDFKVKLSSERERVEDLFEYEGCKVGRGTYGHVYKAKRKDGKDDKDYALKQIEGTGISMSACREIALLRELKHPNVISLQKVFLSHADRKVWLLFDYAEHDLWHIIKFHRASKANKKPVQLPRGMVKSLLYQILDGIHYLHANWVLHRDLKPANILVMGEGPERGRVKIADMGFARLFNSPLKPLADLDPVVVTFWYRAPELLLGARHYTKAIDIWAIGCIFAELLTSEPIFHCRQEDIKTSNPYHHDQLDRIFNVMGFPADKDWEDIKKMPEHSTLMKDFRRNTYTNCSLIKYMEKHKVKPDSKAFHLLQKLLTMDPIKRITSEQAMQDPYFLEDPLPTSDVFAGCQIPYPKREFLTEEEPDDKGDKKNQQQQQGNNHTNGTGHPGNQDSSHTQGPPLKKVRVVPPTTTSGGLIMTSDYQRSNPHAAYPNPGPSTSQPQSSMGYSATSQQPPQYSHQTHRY

Oc1c2nc3ccc(F)cc3c-2nc2n1CCS2
active: AC50 (NIH3T3) 192 µM | AC50 (Candida albicans [1]) 4.72 µM | AC50 (Candida albicans [2]) 37.3 µM

COc1ccc(-c2cc(=O)c3c(O)cc(O)cc3o2)cc1 [ACACETIN]
active: Ki [3] 631 nM | Ki [4] 1.26 µM
inconclusive: AC50 (Cytochrome P450 2C9) 1.26 µM

Cc1ccc(NC(=O)c2ccc(OC3CSC3)cc2)cc1
inactive: IC50 [5] > 99 µM | IC50 (Caspase-3 [6]) > 99 µM | IC50 [7] > 99 µM | IC50 [8] > 99 µM

CS(=O)(=O)c1ccc2nc(NC(=O)c3ccc(OC(F)(F)F)cc3)sc2c1
inactive: IC50 (Caspase-3 [9]) > 99 µM | IC50 [10] > 99 µM | IC50 [11] > 99 µM | IC50 [12] > 99 µM

Cc1[nH]c2ccccc2c1C(=O)CSc1nc2ccccc2[nH]1
inactive: IC50 [15] 12.5 µM | IC50 (H9c2) 32 µM | IC50 (Orexin receptor type 2 [16]) > 50 µM | IC50 (CHO-K1) > 66.2 µM | IC50 (Orexin receptor type 2 [17]) > 88.8 µM | IC50 [18] > 49.8 µM
active: IC50 [13] 3.42 µM | CC50 [14] > 50 µM

CN(C(=O)CSc1nc2ccccc2c(=O)[nH]1)C1CCCCC1
active: CC50 [19] > 100 µM | CC50 [20] > 97.4 µM | CC50 [21] > 100 µM | CC50 [22] > 100 µM | CC50 [23] > 100 µM | CC50 [24] > 100 µM

CCOc1ccccc1/C=N/NC(=O)c1nnn(-c2nonc2N)c1CN1CCC(C)CC1
active: AC50 [25] < 16 nM | AC50 [26] 65 µM | AC50 [27] 39.2 nM
